Consider five compounds from US20220089636A1, “TETRAZOLONE SUBSTITUTED STEROIDS AND USE THEREOF” (Beijing Xuanyi PharmaSciences Co., Ltd., priority 2019, published 2022).

Data set [1] can be described thus: Mouse PK study (i.v. and p.o.). The data set is classed as in vivo. The conditions noted are these: plasma, male CD1 mice; for half-life: read-out: T1/2 (hr) i.v. (converted); for Vd: read-out: Vss; for bioavailability: 5 mg/kg p.o. vs 1 mg/kg i.v. As for the experimental part:
Test compounds were dosed to male CD1 mice at 5 mg/kg by oral gavage (p.o.) or 1 mg/kg by intravenous injection (i.v.). Blood samples were taken at 0.083, 0.25, 0.5, 1.0, 3.0, 6.0 and 24 hours post i.v. dosing and at 0.25, 0.5, 1.0, 3.0, 6.0 and 24 hours post p.o. dosing. The plasma concentration of compounds were determined by HPLC.

A further data set has as its system PTZ-treated mice. The data set is described as follows: Acute PTZ (pentylenetetrazol-induced seizure) assay. The data set is classed as in vivo, Male CD-1 mice. The conditions noted are these: 3 mg/kg oral gavage 60 min prior to PTZ 120 mg/kg s.c.; observed 30 min. As for the experimental part:
The anticonvulsant effect of test compounds were assessed in the pentylenetetazol-induced seizure assay in mice similar to methods described in Giardina & Gasior (2009) Curr Protoc Pharmacol., Chapter 5. Male CD-1 mice were housed in groups of five under controlled conditions (temperature of 22±2° C. and 12:12 light-dark cycle, lights on at 8:00 am) and water and food were available ad libitum. The mice were housed for 1 week prior to behavioral testing, at which time they weighed 25-35 g. Pentylenetetrazol (PTZ, Sigma) was dissolved in sterile 0.9% saline at a concentration of 12 mg/mL concentration for subcutaneous administration. Test compounds were formulated and administered via oral gavage at 60 minutes prior to PTZ injection. AU solutions were made fresh and were given in a volume of 10 ml/kg body weight.
Mice were acclimated to the test room for at least 30 min before compound administration. Mice were randomized into at least four test groups (vehicle and at least three doses of the test compound) with 10 mice per group. […] Following the drug pretreatment time, the mice were injected s.c. with PTZ (120 mg/kg). Immediately following the PTZ injection, mice were individually placed into observation chambers (25×15×15 cm) and a three-channel timer was started. Each mouse was continuously observed for 30 min and the following behaviors were recorded by observers blinded to the treatments: 1) latency to clonic convulsions that persist for 3 sec and followed by an absence of righting reflex 2) latency to tonic convulsions, characterized by the rigid extension of all four limbs that exceeded a 90 degree angle with the body 3) latency to death 4) number of clonic and tonic convulsions. Data are presented as mean±S.E.M and one-way analysis of variance with Dunnetfs or Bonferroni's post-hoc test was used to detect significant differences in latency and number between the vehicle and dose group, p values<0.05 were regarded as statistically significant.

Another data set deals with T1, α1β2γ2 GABAA receptor (Homo sapiens, UniProt P14867+P47870).
T1 construct: expressed in transfected cells
T1 sequence (P14867 28-456): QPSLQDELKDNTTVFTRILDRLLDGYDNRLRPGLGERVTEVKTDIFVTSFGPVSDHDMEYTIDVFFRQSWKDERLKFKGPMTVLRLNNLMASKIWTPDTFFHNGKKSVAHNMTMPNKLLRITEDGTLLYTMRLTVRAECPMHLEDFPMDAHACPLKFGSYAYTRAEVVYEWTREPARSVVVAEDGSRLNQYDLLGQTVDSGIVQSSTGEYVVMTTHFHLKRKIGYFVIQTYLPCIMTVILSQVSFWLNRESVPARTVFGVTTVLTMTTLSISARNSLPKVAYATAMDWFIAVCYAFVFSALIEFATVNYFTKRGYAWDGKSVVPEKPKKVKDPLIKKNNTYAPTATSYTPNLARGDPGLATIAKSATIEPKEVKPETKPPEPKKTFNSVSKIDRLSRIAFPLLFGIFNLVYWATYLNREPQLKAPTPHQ
T1 sequence (P47870 25-512 limits assumed): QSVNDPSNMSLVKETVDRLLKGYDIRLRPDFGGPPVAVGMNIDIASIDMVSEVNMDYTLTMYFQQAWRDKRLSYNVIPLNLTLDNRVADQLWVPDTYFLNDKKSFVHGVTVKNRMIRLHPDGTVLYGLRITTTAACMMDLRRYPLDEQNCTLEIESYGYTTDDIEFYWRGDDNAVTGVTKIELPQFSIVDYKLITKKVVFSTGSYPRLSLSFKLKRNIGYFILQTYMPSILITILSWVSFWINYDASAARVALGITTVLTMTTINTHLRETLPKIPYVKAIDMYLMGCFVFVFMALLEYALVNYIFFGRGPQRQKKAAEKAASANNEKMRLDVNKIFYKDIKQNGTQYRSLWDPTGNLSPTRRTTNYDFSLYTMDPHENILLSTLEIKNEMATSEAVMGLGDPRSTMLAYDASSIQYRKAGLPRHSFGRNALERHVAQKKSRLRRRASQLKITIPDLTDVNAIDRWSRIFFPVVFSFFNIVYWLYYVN
T1 sequence (P18507 40-475 partner): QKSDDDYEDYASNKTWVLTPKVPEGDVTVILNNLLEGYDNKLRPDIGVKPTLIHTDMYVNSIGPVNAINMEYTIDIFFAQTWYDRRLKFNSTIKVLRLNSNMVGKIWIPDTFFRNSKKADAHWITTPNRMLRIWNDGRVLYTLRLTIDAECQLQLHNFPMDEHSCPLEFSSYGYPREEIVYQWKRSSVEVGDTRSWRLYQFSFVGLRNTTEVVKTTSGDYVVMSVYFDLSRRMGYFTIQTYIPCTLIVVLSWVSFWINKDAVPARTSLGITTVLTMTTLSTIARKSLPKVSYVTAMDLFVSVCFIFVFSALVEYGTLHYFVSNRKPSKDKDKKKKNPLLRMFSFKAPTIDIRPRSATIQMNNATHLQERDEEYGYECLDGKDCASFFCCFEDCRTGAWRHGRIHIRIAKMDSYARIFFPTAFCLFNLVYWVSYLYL
In words: Patch clamp electrophysiology assay of recombinant α1β2γ2 GABAA receptors (potentiation of 2 μM GABA-evoked Cl- current). The data set is classed as cell-based. The conditions noted are these: HEK293T cells stably transfected with α1β2γ2 GABAA; for EC50: whole cell, 2 μM GABA, -80 mV. As for the experimental part:
Cellular electrophysiology is used to measure the pharmacological properties of GABAA receptor modulators in heterologous cell systems. Each compound is tested for its ability to affect GABA mediated currents at a submaximal agonist dose (GABA EC20=2 μM). HEK293T cells are stably transfected with the α1β2γ2 subunits of the GABAA receptor. Flasks or dishes of HEK293 GABAA cells were maintained in the medium (DMEM, 11% (v/v) heat inactivated FBS, 100 or 200 μg/ml G418, 40 μg/ml Hygromycin B, 80 μg/ml Zeocin) and incubated at 37° C. in a humidified incubator with 5% CO2. 12 to 24 hours prior to electrophysiological recordings, the cells were plated on glass cover slips placed in culture dishes and maintained under the same incubation and media conditions. The number of cells being plated on the cover slip should reach a confluence rate at which majority of the cells are single.
For the electrophysiological recordings in the study the following external and internal solutions were used (Table 1):
HEKA EPC 10 USB patch clamp amplifier (from HEKA Elektronik, Germany) was used in the whole cell recording. A cover slip with plenty of single HEK293T-GABAA cells on the surface was removed and placed into a continuously perfused (approximately 1-2 ml/minute) recording chamber mounted on an inverted microscope. GABAA Cl^− current was recorded from single cell using standard whole cell recording techniques. 2 μM GABA was used to evoke GABAA Cl^− current (2 μM of GABA was the EC10-EC20 value of agonist GABA obtained internally on the stable GABAA cells used in this study). After achieving break-in (whole-cell) configuration, the cell was voltage clamped at a holding potential of −80 mV. Only stable cells meeting the recording parameters (membrane resistance Rm>500 MΩ, access resistance (Ra)<15 MΩ, leak current<100 pA in 90% of the recording time) were used. 2 μM GABA was applied to the cell to induce stable Cl^− current first as control for about 2 seconds, test compounds (i.e., compounds of formula (AI), (I), (AII), and (II), or any subgenera thereof) were followed to be applied to the cells for 3 min, then 2 μM GABA was applied to observe the potentiation effect on the GABAA Cl^− current. Different doses of test compound from low to high were applied to the same cell when the cell was stable. A cell was considered stable when current size evoked by 2 μM GABA applied to the cell from time to time was similar. To minimize the possible desensitation of GABAA Cl^− current, duration between applications of test articles was set to 180 seconds.
Test compounds were dissolved in DMSO to form stock solutions (10 mM). Test compounds were diluted to 0.003, 0.01, 0.03, 0.1, 0.3, 1, 3 and 10 μM in bath solution. AU concentrations of test articles were tested on each cell. Data were analyzed using software provided by HEKA, Microsoft Excel and Graphpad Prism (Table 2).

Where [2] appears, read: iv, 1 mg/kg i.v., read-out: AUClast (hr*ng/mL) i.v.
Where [3] appears, read: po, 5 mg/kg p.o., read-out: AUClast (hr*ng/mL) p.o.

SMILES strings stand for the structures. Read-outs that look alike come from different tables or passages of the source.

`C[C@@]1(O)CC[C@H]2[C@H](CC[C@@H]3[C@@H]2CC[C@]2(C)[C@@H](C(=O)Cn4nnn(-c5ccncc5)c4=O)CC[C@@H]32)C1` [Example 17, 1-(2-((3R,5R,8R,9R,10S,13S,14S,17S)-3-hydroxy-3,13-dimethylhexadecahydro-1H-cyclopenta[a]phenanthren-17-yl)-2-oxoethyl)-4-(pyridin-4-yl)-1,4-dihydro-5H-tetrazol-5-one]: in data set [1] (iv, 1 mg/kg i.v.), the clearance is 43.5 mL/min/kg, the half-life was 0.84 h and the Vd amounted to 2.12 L/kg. The AUC(0-t) in data set [1] (setting [2]) came out at 381 ng·h/mL. In data set [1] (po, 5 mg/kg p.o.), the peak level (Cmax) was 227 ng/mL and the Tmax is 3 h. In addition, the bioavailability in data set [1] (po) came to 101%. The AUC(0-t) in data set [1] (setting [3]) was 1930 ng·h/mL. Also, in the data set on PTZ-treated mice, the “Clonic Seizure Latency (sec) (Mean)” value is 1441 + 184.6 sec, the “Clonic Seizure Number (Mean)” value is 0.3 ± 0.2, the “Mortality (%)” value was determined as 0.0% and the “Onset of death (sec) (Mean)” value was 1800 + 0.0 sec. Further, in the data set on PTZ-treated mice, the “Tonic Seizure Latency (sec) (Mean)” value is 1800 + 0.0 sec and the “Tonic Seizure Number (Mean)” value is on record as 0.0 + 0.0. Further, at α1β2γ2 GABAA receptor, the EC50 came out at 38 nM.

`C[C@@]1(O)CC[C@H]2[C@H](CC[C@@H]3[C@@H]2CC[C@]2(C)[C@@H](C(=O)Cn4nnn(-c5ccc(F)cc5)c4=O)CC[C@@H]32)C1` [Example 11, 1-(4-fluorophenyl)-4-(2-((3R,5R,8R,9R,10S,13S,14S,17S)-3-hydroxy-3,13-dimethylhexadecahydro-1H-cyclopenta[a]phenanthren-17-yl)-2-oxoethyl)-1,4-dihydro-5H-tetrazol-5-one]: in data set [1] (iv, 1 mg/kg i.v.), the clearance is 13.5 mL/min/kg, the half-life was 3.9 h and the Vd stood at 2.42 L/kg. In addition, the AUC(0-t) in data set [1] (setting [2]) worked out at 1230 ng·h/mL. In data set [1] (po, 5 mg/kg p.o.), the highest level (Cmax) was 274 ng/mL and the Tmax was determined as 1 h. Moreover, the bioavailability in data set [1] (po) is 52.3%. Further, the AUC(0-t) in data set [1] (setting [3]) stood at 3200 ng·h/mL. Also, in the data set with PTZ-treated mice, the “Clonic Seizure Latency (sec) (Mean)” value is 717.4 ± 238.5 s, the “Clonic Seizure Number (Mean)” value worked out at 0.8 ± 0.2, the “Mortality (%)” value is given as 0.0% and the “Onset of death (sec) (Mean)” value is listed as 1800 + 0.0 sec. Also, in the data set on PTZ-treated mice, the “Tonic Seizure Latency (sec) (Mean)” value is given as 1800 + 0.0 sec and the “Tonic Seizure Number (Mean)” value was 0.0 + 0.0. The half-maximal effective concentration (EC50) at α1β2γ2 GABAA receptor is 44 nM. Moreover, at α1β2γ2 GABAA receptor (HEK-293T, potentiation of 2 μM GABA current), the maximal effect (Emax) was determined as 795%.

As for `C[C@@]1(O)CC[C@H]2[C@H](CC[C@@H]3[C@@H]2CC[C@]2(C)[C@@H](C(=O)Cn4nnn(-c5cn[nH]c5)c4=O)CC[C@@H]32)C1` [Example 28, 1-(2-((3R,5R,8R,9R,10S,13S,14S,17S)-3-hydroxy-3,13-dimethylhexadecahydro-1H-cyclopenta[a]phenanthren-17-yl)-2-oxoethyl)-4-(1H-pyrazol-4-yl)-1,4-dihydro-5H-tetrazol-5-one], in data set [1] (iv, 1 mg/kg i.v.), the clearance was 7.17 mL/min/kg, the half-life is 6.12 h and the Vd came to 2.9 L/kg. In addition, the AUC(0-t) in data set [1] (setting [2]) worked out at 2180 ng·h/mL. Moreover, in data set [1] (po, 5 mg/kg p.o.), the Cmax amounted to 563 ng/mL and the Tmax stood at 6 h. In addition, the bioavailability in data set [1] (po) amounted to 77.3%. For the same compound, in data set [1] (setting [3]), the AUC(0-t) is 8420 ng·h/mL. In addition, in the data set on PTZ-treated mice, the “Clonic Seizure Latency (sec) (Mean)” value came out at 573.1 ± 124.9 s, the “Clonic Seizure Number (Mean)” value stood at 1.7 ± 0.3, the “Mortality (%)” value worked out at 40% and the “Onset of death (sec) (Mean)” value stood at 1594.7 ± 107.0 s. Further, in the data set with PTZ-treated mice, the “Tonic Seizure Latency (sec) (Mean)” value came to 1586.3 ± 109.8 s and the “Tonic Seizure Number (Mean)” value is listed as 0.4 ± 0.2. Also, the EC50 at α1β2γ2 GABAA receptor came out at 140 nM.

In the case of `C[C@@]1(O)CC[C@H]2[C@H](CC[C@@H]3[C@@H]2CC[C@]2(C)[C@@H](C(=O)Cn4nnn(-c5ccc(C#N)cc5)c4=O)CC[C@@H]32)C1` [Example 13, 4-(4-(2-((3R,5R,8R,9R,10S,13S,14S,17S)-3-hydroxy-3,13-dimethylhexadecahydro-1H-cyclopenta[a]phenanthren-17-yl)-2-oxoethyl)-5-oxo-4,5-dihydro-1H-tetrazol-1-yl)benzonitrile], in data set [1] (iv, 1 mg/kg i.v.), the clearance was 5.67 mL/min/kg, the half-life was 8.03 h and the Vd is 2.94 L/kg. Also, the AUC(0-t) in data set [1] (setting [2]) came out at 2640 ng·h/mL. Also, in data set [1] (po, 5 mg/kg p.o.), the highest level (Cmax) was 479 ng/mL and the Tmax is 1 h. In data set [1] (po), the bioavailability turned out to be 41.5%. Further, in data set [1] (setting [3]), the AUC(0-t) was determined as 5760 ng·h/mL. Also, in the data set with PTZ-treated mice, the “Clonic Seizure Latency (sec) (Mean)” value was 1012 + 263.6 sec, the “Clonic Seizure Number (Mean)” value came to 0.7 ± 0.3, the “Mortality (%)” value is 0.0% and the “Onset of death (sec) (Mean)” value is recorded as 1800 + 0.0 sec. In the data set with PTZ-treated mice, the “Tonic Seizure Latency (sec) (Mean)” value is reported as 1800 + 0.0 sec and the “Tonic Seizure Number (Mean)” value was 0.0 + 0.0. For the same compound, the EC50 on α1β2γ2 GABAA receptor was determined as 13 nM.

As to `C[C@@]1(O)CC[C@H]2[C@H](CC[C@@H]3[C@@H]2CC[C@]2(C)[C@@H](C(=O)Cn4nnn(-c5ccccc5)c4=O)CC[C@@H]32)C1` [Example 10, 1-(2-((3R,5R,8R,9R,10S,13S,14S,17S)-3-hydroxy-3,13-dimethylhexadecahydro-1H-cyclopenta[a]phenanthren-17-yl)-2-oxoethyl)-4-phenyl-1,4-dihydro-5H-tetrazol-5-one], in data set [1] (iv, 1 mg/kg i.v.), the clearance is 9 mL/min/kg, the half-life was 4.22 h and the Vd amounted to 2.16 L/kg. In addition, in data set [1] (setting [2]), the AUC(0-t) came out at 1840 ng·h/mL. Besides, in data set [1] (po, 5 mg/kg p.o.), the Cmax was 491 ng/mL and the Tmax came out at 3 h. In data set [1] (po), the bioavailability was 60.5%. Moreover, the AUC(0-t) in data set [1] (setting [3]) was 5510 ng·h/mL. Also, in the data set with PTZ-treated mice, the “Clonic Seizure Latency (sec) (Mean)” value was 1485 + 210.2 sec, the “Clonic Seizure Number (Mean)” value was 0.3 ± 0.2, the “Mortality (%)” value was found to be 0.0% and the “Onset of death (sec) (Mean)” value is 1800 + 0.0 sec. For the same compound, in the data set on PTZ-treated mice, the “Tonic Seizure Latency (sec) (Mean)” value is listed as 1800 + 0.0 sec and the “Tonic Seizure Number (Mean)” value is given as 0.0 + 0.0. Besides, the half-maximal effective concentration (EC50) on α1β2γ2 GABAA receptor was found to be 27 nM.
